For test [1], the system named is shunt pathway. In words: Test, Code 036 (C-Shunt inhibitor): lysis of fragile human erythrocytes in autologous serum via the shunt pathway activated by cobra venom factor. It is filed as cell-based. Details: key: Negative. To be noted: activity in wells, two-fold serial dilution assay.
For test [2], the system named is late components of human complement (C3-C9). In words: Test, Code 035 (C3-C9 inhibitor): lysis of EAC 142 by late components of human complement. It is filed as cell-based. Details: key: Negative. The conditions noted are these: activity in wells, two-fold serial dilution assay.
In test [3] the test system is whole complement. In words: Complement Level Reduction Test: whole complement in serum of dosed guinea pigs, capillary tube assay. To be noted: 200 mg/kg. It is filed as in vivo, guinea pig. The source says:
An active inhibitor protects C2 from C1 and C4; (ii) Test, Code 035 (C3-C9 inhibitor) -- This test determines the ability of the late components of human complement (C3-C9) to lyse EAC 142 in the presence of appropriate dilutions of the test compound. An active inhibitor protects EAC 142 from lysis by C3-C9; (iii) Test, Code 036 (C-Shunt inhibitor) -- In this test human erythrocytes rendered fragile are lysed in autologous serum via the shunt pathway activated by cobra venom factor in the presence of appropriate dilutions of the test compound. Inhibition of the shunt pathway results in failure of lysis; (iv) Forssman Vasculitis Test -- Here, the well known complement dependent lesion, Forssman vasculitis, is produced in guinea pigs by intradermal injection of rabbit anti-Forssman antiserum. The lesion is measured in terms of diameter, edema and hemorrhage and the extent to which a combined index of these is inhibited by prior intraperitoneal injection of the test compound at 200 mg/kg is then reported, unless otherwise stated; (v) Forssman Shock Test -- Lethal shock is produced in guinea pigs by an i.v. injection of anti-Forssman antiserum and the harmonic mean death time of treated guinea pigs is compared with that of simultaneous controls; (vi) Complement Level Reduction Test -- In this test, the above dosed guinea pigs, or others, are bled for serum and the complement level is determined in undiluted serum by the capillary tube method of U.S. Pat. No. 3,876,376 and compared to undosed control guinea pigs; and (vii) Cap 50 Test -- Here, appropriate amounts of the test compound are added to a pool of guinea pig serum in vitro, after which the undiluted serum capillary tube assay referred to above is run. The concentration of compound inhibiting 50% is reported.
With reference to Table I, guinea pigs weighing about 300 g were dosed intravenously (i.v.) or intraperitoneally (i.p.) with 200 mg/kg of the test compound dissolved in saline and adjusted to pH 7-8. One hour after dosing, the guinea pigs were decapitated, blood was collected and the serum separated. The serum was tested for whole complement using the capillary tube assay. Percent inhibition was calculated by comparison with simultaneous controls. The results appear in Table I together with results of tests, code 026, 035, 036, Cap 50, % inhibition and Forssman shock.

The subject of test [4] is complement system. To be noted: reported in literature; cited from earlier work.
For test [5] the following is noted: The New England Journal of Medicine, 286, 808-812 (1972); cited from earlier work.

Counter-ions that a name gives are not always drawn.

With `O=S(=O)(O)c1cc(NC(=S)Nc2ccc(-c3ccc(NC(=S)Nc4cc(S(=O)(=O)O)cc5cc(S(=O)(=O)O)cc(S(=O)(=O)O)c45)cc3S(=O)(=O)O)c(S(=O)(=O)O)c2)c2c(S(=O)(=O)O)cc(S(=O)(=O)O)cc2c1` [8,8'-[(2,2'-Disulfo-4,4'-biphenylylene)bis(2-thioureylene)]di-1,3,6-naphthalenetrisulfonic acid octasodium salt], the “Shunt Inhibition 036 Wells” value in test [1] was “N”. Besides, in test [2], the “C-Late 035 Wells” value is recorded as “N”. The “In Vivo Activity (Guinea Pig) % Inhibition” value in test [3] (intraperitoneal, 30 min) is -55%; in test [3] (intraperitoneal, 60 min), -55%; in test [3] (intraperitoneal, 120 min), -70%; in test [3] (intravenous, 2 min), -92%; in test [3] (intravenous, 30 min), -46%; in test [3] (intravenous, 120 min) it was -31%.
With `Cc1ccc(C(=O)Nc2ccc(S(=O)(=O)O)c3cc(S(=O)(=O)O)cc(S(=O)(=O)O)c23)cc1NC(=O)c1cccc(NC(=O)Nc2cccc(C(=O)Nc3cc(C(=O)Nc4ccc(S(=O)(=O)O)c5cc(S(=O)(=O)O)cc(S(=O)(=O)O)c45)ccc3C)c2)c1` [Suramin], the “complement inhibiting / anticomplementary effect” value in test [4] is “competitive inhibitor of the complement system”.
As to `Nc1ccc2cc(S(=O)(=O)O)cc(O)c2c1N=Nc1ccc(NC(=O)Nc2ccc(N=Nc3c(N)ccc4cc(S(=O)(=O)O)cc(O)c34)c(S(=O)(=O)O)c2)cc1S(=O)(=O)O` [chlorazol fast pink, 3,3'-ureylenebis-[6-(2-amino-8-hydroxy-6-sulfo-1-naphthylazo)]benzenesulfonic acid, tetrasodium salt], in test [4], the “complement inhibiting / anticomplementary effect” value is recorded as “anticomplementary effect”.
On to `NCCCCCC(=O)O` [epsilon-aminocapronic acid], for which, in test [5], the “use in the treatment of hereditary angioneurotic edema” value is recorded as “used with success”.
With `NC[C@H]1CC[C@H](C(=O)O)CC1` [tranexamic acid], in test [5], the “use in the treatment of hereditary angioneurotic edema” value is “used with success”.
Turning to heparin, the “complement inhibiting / anticomplementary effect” value in test [4] is recorded as “anticomplementary effect”.

The values are drawn from patent publication US4107202A, “Substituted 4,4'-biphenylylene bis(2-thioureylene)di-naphthalenetrisulfonic acids and salts thereof” (American Cyanamid Company, priority 1977, dated 1978).
